PubChem BioAssay AID248 (DTP/NCI, 2004)
“And” between values parts separate entries of the source, which are not always exact repeats. Identical values can stand only once. Toxic doses and inconclusive results are not listed. Cut-off read from the data, not from the text of the source: active = T/C of 150% or more; inactive = T/C below 125%.

Test system: L1210 leukemia ip in BDF1 mice, survival T/C
Assay: NCI In Vivo Anticancer Drug Screen. Data for tumor model L1210 Leukemia (intraperitoneal) in B6D2F1 (BDF1) mice
Details: endpoint: mean survival time, higher = longer survival
Method in brief: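 Read-out is survival time, reported as the treated-group measurement over the vehicle-control measurement.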

[1] = dose: 100.0 mg/kg/injection, schedule: Q01DX001 (ip), vehicle: carboxymethylcellulose (CMC)
[2] = dose: 200.0 mg/kg/injection, schedule: Q01DX001 (ip), vehicle: carboxymethylcellulose (CMC)
[3] = dose: 400.0 mg/kg/injection, schedule: Q01DX001 (ip), vehicle: carboxymethylcellulose (CMC)
[4] = dose: 25.0 mg/kg/injection, schedule: Q01DX009 (ip), vehicle: saline
[5] = dose: 50.0 mg/kg/injection, schedule: Q01DX009 (ip), vehicle: saline
[6] = dose: 100.0 mg/kg/injection, schedule: Q01DX009 (ip), vehicle: saline
[7] = dose: 100.0 mg/kg/injection, schedule: Q01DX009 (ip), vehicle: Klucel (hydroxypropylcellulose) (HPC)
[8] = dose: 200.0 mg/kg/injection, schedule: Q01DX009 (ip), vehicle: Klucel (hydroxypropylcellulose) (HPC)
[9] = dose: 100.0 mg/kg/injection, schedule: Q01DX001 (ip), vehicle: saline
[10] = dose: 200.0 mg/kg/injection, schedule: Q01DX001 (ip), vehicle: saline
[11] = dose: 400.0 mg/kg/injection, schedule: Q01DX001 (ip), vehicle: saline
[12] = dose: 50.0 mg/kg/injection, schedule: Q01DX001 (ip), vehicle: saline
[13] = dose: 50.0 mg/kg/injection, schedule: Q01DX009 (ip), vehicle: Klucel (hydroxypropylcellulose) (HPC)
[14] = dose: 100.0 mg/kg/injection, schedule: Q04DX002 (ip), vehicle: Klucel (hydroxypropylcellulose) (HPC)
[15] = dose: 200.0 mg/kg/injection, schedule: Q04DX002 (ip), vehicle: Klucel (hydroxypropylcellulose) (HPC)
[16] = dose: 400.0 mg/kg/injection, schedule: Q04DX002 (ip), vehicle: Klucel (hydroxypropylcellulose) (HPC)
[17] = dose: 75.0 mg/kg/injection, schedule: Q01DX001 (ip), vehicle: other
[18] = dose: 150.0 mg/kg/injection, schedule: Q01DX001 (ip), vehicle: other

Measured: T/C

COc1ccc(/C(=C(/CC(=O)O)C(=O)OC(C)(C)C)c2cc(OC)c(OC)c(OC)c2)cc1OC
inactive: [1] 96 % of control | [2] 102 % of control | [3] 97 % of control

C/C(CCl)=N\Nc1ccc([N+](=O)[O-])cc1[N+](=O)[O-]
inactive: dose: 100.0 mg/kg/injection, schedule: Q01DX001 (ip), vehicle: saline with Tween-80 101 % of control | dose: 200.0 mg/kg/injection, schedule: Q01DX001 (ip), vehicle: saline with Tween-80 98 % of control

C=CCc1cccc(CC=C)c1OCCN(CC)CC
inactive: [4] 98 % of control | [5] 105 % of control | [6] 95 % of control and 107 % of control

O=C1C=C2CCCC(=O)C2(Cc2ccccc2)CC1 (stereo unspecified)
inactive: dose: 100.0 mg/kg/injection, schedule: Q01DX009 (ip), vehicle: alcohol 103 % of control | dose: 200.0 mg/kg/injection, schedule: Q01DX009 (ip), vehicle: alcohol 92 % of control | dose: 400.0 mg/kg/injection, schedule: Q01DX009 (ip), vehicle: alcohol 96 % of control

O=C(Nc1ccc(C(=O)Nc2nccs2)cc1)c1ccc(C(=O)Nc2ccc(C(=O)Nc3nccs3)cc2)c(Cl)c1
inactive: dose: 4.4 mg/kg/injection, schedule: Q01DX Z (ip), vehicle: saline 106 % of control | dose: 6.6 mg/kg/injection, schedule: Q01DX Z (ip), vehicle: saline 97 % of control | dose: 10.0 mg/kg/injection, schedule: Q01DX Z (ip), vehicle: saline 97 % of control | dose: 15.0 mg/kg/injection, schedule: Q01DX Z (ip), vehicle: saline 93 % of control and 97 % of control and 106 % of control | dose: 22.5 mg/kg/injection, schedule: Q01DX Z (ip), vehicle: saline 104 % of control | dose: 30.0 mg/kg/injection, schedule: Q01DX Z (ip), vehicle: saline 100 % of control | dose: 33.75 mg/kg/injection, schedule: Q01DX Z (ip), vehicle: saline 111 % of control | dose: 50.6 mg/kg/injection, schedule: Q01DX Z (ip), vehicle: saline 93 % of control | dose: 60.0 mg/kg/injection, schedule: Q01DX Z (ip), vehicle: saline 97 % of control | dose: 120.0 mg/kg/injection, schedule: Q01DX Z (ip), vehicle: saline 98 % of control and 100 % of control | dose: 180.0 mg/kg/injection, schedule: Q01DX Z (ip), vehicle: saline 93 % of control | dose: 270.0 mg/kg/injection, schedule: Q01DX Z (ip), vehicle: saline 92 % of control | dose: 400.0 mg/kg/injection, schedule: Q01DX Z (ip), vehicle: saline 93 % of control

CNCCOc1ccccc1
inactive: dose: 50.0 mg/kg/injection, schedule: Q01DX009 (ip), vehicle: saline with Tween-80 105 % of control | dose: 100.0 mg/kg/injection, schedule: Q01DX009 (ip), vehicle: saline with Tween-80 101 % of control | dose: 100.0 mg/kg/injection, schedule: Q04DX003 (ip), vehicle: saline with Tween-80 107 % of control | dose: 200.0 mg/kg/injection, schedule: Q04DX003 (ip), vehicle: saline with Tween-80 93 % of control

O=C1C(Br)C(Br)C(=O)N1c1ccccc1F (stereo unspecified)
inactive: dose: 12.5 mg/kg/injection, schedule: Q01DX009 (ip), vehicle: other 96 % of control | dose: 25.0 mg/kg/injection, schedule: Q01DX009 (ip), vehicle: other 92 % of control

CNC(=S)N/N=C/CCC/C=N/NC(=S)NC
inactive: dose: 50.0 mg/kg/injection, schedule: Q01DX001 (ip), vehicle: carboxymethylcellulose (CMC) 96 % of control | [1] 100 % of control | [2] 98 % of control

CCCCCCCCCCCCCC(CCCCCC)C1CCCCC1 (stereo unspecified)
inactive: dose: 100.0 mg/kg/injection, schedule: Q01DX001 (ip), vehicle: acetone 100 % of control | dose: 200.0 mg/kg/injection, schedule: Q01DX001 (ip), vehicle: acetone 106 % of control | dose: 400.0 mg/kg/injection, schedule: Q01DX001 (ip), vehicle: acetone 101 % of control

CC1C(=O)CCCC1=O
inactive: [7] 101 % of control | [8] 101 % of control | dose: 400.0 mg/kg/injection, schedule: Q01DX009 (ip), vehicle: Klucel (hydroxypropylcellulose) (HPC) 95 % of control

CC(=O)Nc1ccc(OC(=O)Nc2ccc([N+](=O)[O-])cc2Cl)cc1
inactive: [6] 102 % of control | dose: 100.0 mg/kg/injection, schedule: Q04DX003 (ip), vehicle: saline 103 % of control | dose: 200.0 mg/kg/injection, schedule: Q01DX009 (ip), vehicle: saline 104 % of control | dose: 200.0 mg/kg/injection, schedule: Q04DX003 (ip), vehicle: saline 100 % of control | dose: 400.0 mg/kg/injection, schedule: Q01DX009 (ip), vehicle: saline 104 % of control | dose: 400.0 mg/kg/injection, schedule: Q04DX003 (ip), vehicle: saline 103 % of control

Clc1cnc[nH]1
inactive: [4] 105 % of control | [5] 108 % of control | [9] 102 % of control | [6] 105 % of control | [10] 110 % of control | [11] 102 % of control

COC1C(C(=O)O)=CC=CC1OC(C)=O (stereo unspecified)
inactive: [9] 90 % of control | [10] 102 % of control | [11] 104 % of control

CCCCCCN(C)Cc1ccc(OCCOc2ccc(CN(C)CCCCCC)cc2)cc1
inactive: [12] 100 % of control

CNC(=O)N(C)Cc1ccco1
inactive: [13] 91 % of control | [7] 102 % of control | [8] 101 % of control

N#Cc1ccc(/C=C\c2ccc(C#N)cc2)cc1
inactive: dose: 0.6 mg/kg/injection, schedule: Q04DX002 (ip), vehicle: Klucel (hydroxypropylcellulose) (HPC) 104 % of control | dose: 1.2 mg/kg/injection, schedule: Q04DX002 (ip), vehicle: Klucel (hydroxypropylcellulose) (HPC) 104 % of control | dose: 2.5 mg/kg/injection, schedule: Q04DX002 (ip), vehicle: Klucel (hydroxypropylcellulose) (HPC) 97 % of control | dose: 50.0 mg/kg/injection, schedule: Q04DX002 (ip), vehicle: Klucel (hydroxypropylcellulose) (HPC) 104 % of control | [14] 104 % of control and 122 % of control | [15] 109 % of control and 110 % of control | [16] 98 % of control

O=[N+]([O-])c1ccc(OP(=O)(Oc2ccc([N+](=O)[O-])cc2)Oc2ccc([N+](=O)[O-])cc2)cc1
inactive: dose: 100.0 mg/kg/injection, schedule: Q04DX003 (ip), vehicle: gum acacia 97 % of control and 107 % of control | dose: 200.0 mg/kg/injection, schedule: Q04DX003 (ip), vehicle: gum acacia 92 % of control and 103 % of control | dose: 400.0 mg/kg/injection, schedule: Q04DX003 (ip), vehicle: gum acacia 94 % of control and 95 % of control

NC(CO)C(=O)O (stereo unspecified)
inactive: [1] 95 % of control | [9] 91 % of control and 104 % of control | [2] 101 % of control | [10] 92 % of control and 101 % of control | [3] 103 % of control | [11] 105 % of control and 95 % of control

C=CCO[Si](OCC=C)(OCC=C)OCC=C
inactive: [17] 101 % of control | [18] 98 % of control

CC1(C)C=CC(=NO)C=C1
inactive: [7] 96 % of control | [8] 97 % of control

Cc1ccc(NCC2(/N=C/c3ccccc3)OC(CO)C(O)C2O)cc1 (stereo unspecified)
inactive: [14] 97 % of control | [15] 102 % of control | [16] 102 % of control

Cc1cc(C)c2ccc(Cl)nc2n1
inactive: dose: 25.0 mg/kg/injection, schedule: Q01DX009 (ip), vehicle: Klucel (hydroxypropylcellulose) (HPC) 97 % of control | [13] 99 % of control

O=C1Nc2ccccc2C2Cc3c([nH]c4ccccc34)CC12 (stereo unspecified)
inactive: [12] 115 % of control | [9] 104 % of control | [10] 104 % of control | [11] 89 % of control

COc1cc(Nc2ccc(Oc3ccc(O)c(CN)c3)cc2)c2ncccc2c1
inactive: [17] 103 % of control | [18] 97 % of control | dose: 300.0 mg/kg/injection, schedule: Q01DX001 (ip), vehicle: other 100 % of control

Cc1cccn(C(=O)c2ccccc2)c1=N
inactive: [1] 100 % of control | [2] 96 % of control | [3] 102 % of control

Cc1nc(N)nc(Cl)c1CCCc1ccccc1
inactive: dose: 100.0 mg/kg/injection, schedule: Q01DX001 (ip), vehicle: Klucel (hydroxypropylcellulose) (HPC) 97 % of control | dose: 200.0 mg/kg/injection, schedule: Q01DX001 (ip), vehicle: Klucel (hydroxypropylcellulose) (HPC) 102 % of control | dose: 400.0 mg/kg/injection, schedule: Q01DX001 (ip), vehicle: Klucel (hydroxypropylcellulose) (HPC) 107 % of control
